From patent publication US20060172953A1, “Treatment of benign prostatic hyperplasia using energolytic agents” (Threshold Pharmaceuticals Inc., priority 2003, published 2006)

What was measured:
[1] = system: HIF-1α; test: HIF-1α expression in PC3 cells (immunoblot of nuclear and whole-cell extracts); assay type: cell-based, human; settings: 4 hours, dose-dependent
Description: (§1) See Franklin et al.; 1995, Endocrine 3:603-607. […] 20108 USA. Methods: […]

[2] = system: LNCaP cells; test: Apoptosis (caspase 3 activation) in citrate-producing LNCaP cells; assay type: cell-based, human
Experimental: (§2) Immunoblotting: Immunoblotting was carried out as described in Example 2. […] Apoptosis assay: […] Lonidamine was added into each well at different concentrations, and then incubated for 6 h at 37° C. To assess the caspase 3 activity, the homogeneous buffer and caspase 3 substrate (Promega No G7791; Promega Corporation, 2800 Woods Hollow Road, Madison Wis. USA 53711) were added into each well in the presence or absence of caspase 3 inhibitor (Promega No G5961). The fluorescence intensity of cleaved substrate was determined using a fluorescence plate reader at excitation 485 nm and emission 530 nm.

[3] = system: actin, caspase 3, NF-κB, IκBα; test: Protein levels of actin, caspase 3, NF-κB, IκBα (immunoblot, specificity control); assay type: cell-based, human; settings: all concentrations tested except 800 μM
Experimental: Methods: Cells were plated at a density of 5×10^5 cells into a dish, and then maintained in 37° C. incubator (5% CO2) for 2 days. Prior to the assay, cells were rinsed twice with pre-warmed (37° C.) RPMI-1640 Medium (ATCC No. 30-2001; 10 mM HEPES; 1 mM sodium pyruvate; 2 mM L-glutamine; 4500 mg glucose/L; 1500 mg sodium bicarbonate/L). Cells were incubated with 2 ml of culture medium in the absence or presence of lonidamine at different concentrations for 4 hours at 37° C. either under normoxia or hypoxia (oxygen level <0.1%). At the end of the incubation, the dish was placed on ice, and the cells were washed rapidly twice with cold PBS buffer (4° C.). […] The protein concentration was measured using a Bio-Rad protein assay. […] To detect the expression of caspase 3, NF-κB, P65 and IκBα, the membrane was blocked with TBST-containing 5% non-fat milk for 1 h at room temperature, and the proteins were detected by incubation with the corresponding antibodies overnight at 4° C. and with the alkaline phosphatase-conjugated secondary antibody for 1 h. The specific protein was detected using a colorimetric substrate, and the intensity of each protein was quantified using an NIH image system.

[4] = system: human prostate stromal cells; test: Apoptosis assay in primary cultures of prostate stromal cells; assay type: cell-based; settings: primary cultures of prostate stromal cells (do not accumulate citrate)
Experimental: (§3) Primary Cell Cultures: Primary cultures of human prostate epithelial cells (Cambrex No CC-2555) and human prostate stromal cells (Cambrex No CC-2508) were obtained from Cambrex Bio Science Rockland, Inc. (191 Thomaston Street, Rockland, Me. 04841). Apoptosis assay: […] Lonidamine was added into each well at different concentrations, and then incubated for 6 h at 37° C. To assess the caspase 3 activity, the homogeneous buffer and caspase 3 substrate (Promega No G7791; Promega Corporation, 2800 Woods Hollow Road, Madison Wis. USA 53711) were added into each well in the presence or absence of caspase 3 inhibitor (Promega No G5961). The fluorescence intensity of cleaved substrate was determined using a fluorescence plate reader at excitation 485 nm and emission 530 nm.

[5] = system: HIF-1α; test: HIF-1α expression in LNCaP cells (immunoblot of nuclear and whole-cell extracts); assay type: cell-based, human; settings: for reduction of HIF-1α expression/accumulation (nuclear fraction): citrate-producing cell cultured under hypoxia
Description: as §1

[6] = system: PC3 cells; test: Apoptosis (caspase 3 activation) in citrate-oxidizing PC3 cells; assay type: cell-based, human; settings: LNCaP vs PC3 (citrate-oxidizing) cells
Experimental: as §2

[7] = system: human prostate epithelial cells; test: Apoptosis assay in primary cultures of prostate epithelial cells; assay type: cell-based; settings: primary cultures of prostate epithelial cells (accumulate citrate)
Experimental: as §3

With O=C(O)c1nn(Cc2ccc(Cl)cc2Cl)c2ccccc12 [lonidamine, 1-(2,4-dichlorobenzyl)-1H-indazole-3-carboxylic acid] the “level of HIF-1α protein in nuclear and whole-cell extracts” value (shortened to “level of HIF-1α protein”) ([1]; hypoxic conditions (oxygen <0.1%)) was “reduced the level of HIF-1α protein”, the “level of HIF-1α protein” value ([1]; normoxic conditions) was “reduced the level of HIF-1α protein” and the “activation of caspase 3” value ([2]; LNCaP (citrate-producing) cells) was “induced activation of caspase 3”. For the same molecule, the “time course of caspase 3 activation” value ([2]; lonidamine-treated cells) was “time-dependent process”, the “inhibition of protein levels of actin, caspase 3, NF-κB, or IκBα” value [3] was “no detectable inhibition” and the induction of apoptosis [4] was “induction of apoptosis was not observed”. The “level of HIF-1α protein” value ([5]; LNCaP cells, hypoxic conditions (oxygen <0.1%), 4 hours, dose-dependent) was “reduced the level of HIF-1α protein”, the “reduction of HIF-1α expression/accumulation (nuclear fraction)” value ([5]; 200 micromolar lonidamine) was “about 2 fold” and the “reduction of HIF-1α expression/accumulation (nuclear fraction)” value ([5]; higher lonidamine concentrations (above 200 micromolar)) was “more than 5 fold”. For the same molecule, the “effect on HIF-1α expression, LNCaP compared with PC3” value ([5]; hypoxic conditions (oxygen level <0.1%), LNCaP vs PC3) was “more pronounced in LNCaP cells than in PC3 cells”, the “activation of caspase 3, LNCaP compared with PC3” value [6] was “to a much greater extent than in citrate-oxidizing cells (PC3)” and the induction of apoptosis [7] was “induced apoptosis only in prostate epithelial cells in a dose-dependent manner”.
